Results reported in US20220370382A1, “METHODS AND COMPOSITIONS FOR CORRECTION OF AUTONOMIC DYSFUNCTIONS” (priority 2021, published 2022).

Columns and labels:
[1] = cited from earlier work
[2] = system: effector organs of the vagus nerve; test: Stimulation of the effector organs of the vagus nerve in patients tested; format: in vivo, human
Description: Certain ingredients of the compound (a choline compound, an acetylcholinesterase inhibitor and Acetyl-L-Carnitine) have been used to reduce inflammation, to assist those suffering from metabolic insufficiencies, and for healthy memory and mental function, and numerous studies have been published involving cognition, dementia, age-related memory loss and neurodegeneration with these ingredients. (U.S. Pat. No. 6,537,969 B1, Patent No. US 2008/0213401). […] It is not intuitive or obvious that any two of these ingredients can also be effective and that any two of these ingredients can restore parasympathetic nerve function even when the postganglionic nerve is not viable for any reason, by directly stimulating the effector organs themselves.
Driscoll found the use of nicotine can diagnose pre-ganglionic vagus nerve dysfunction. […] Nicotine (transdermal, suppository, or) can be used to discern receptor damage from either direct nerve damage or neurotransmitter dysfunction. These forms of nicotine can be used to verify that the organ is capable of responding, to test the cholinergic receptors or postganglionic nerve, or can be used for short periods of time to assist with said organ function (ileocecal valve, gastroparesis/constipation, gallbladder, pancreas, gastric acid secretion). No part of the vagus nerve is required for the use of nicotine to be effective because the invention can effectively stimulate the receptor on the organ itself. […]

[3] = person, Ehlers-Danlos syndrome, given for a hospital-induced infection
[4] = system: patients with autonomic dysfunction and/or connective tissue disorders; test: Patient case studies: other signs (tachycardia, dry eyes, light sensitivity, Roth spot, gallbladder function, pseudotumor cerebri symptoms); format: in vivo, human; details: person, POTS, Idiopathic Intracranial Hypertension; acetazolamide 250 mg three times per day
Description: They also suffered with poor digestion, dry eyes, and fatigue.
Most every day (usually in the evenings) they experienced pseudo seizures lasting from 30 minutes to three hours. These began with their eyes rolling up and their eyelids fluttering, then they progressed to full body twitching and spasming. These pseudo seizures continued for over three years, but physicians were unable to locate the source of their symptoms. A Roth spot in their ocular fundus in addition to numerous symptoms of nutrient malabsorption were noted. They suffered with light sensitivity secondary to large pupils (5.5 mm), weight loss, extreme fatigue, constipation, tachycardia, and dry eyes.
Gallbladder removal surgery was recommended.

[5] = system: patients with autonomic dysfunction and/or connective tissue disorders; details: person, POTS, Idiopathic Intracranial Hypertension; acetazolamide 250 mg three times per day
Description: Acetazolamide was prescribed for high intracranial pressure.

## CN1CCCC1c1cccnc1 (centres unmarked) [Nicotine]
[1]; human, in vivo
  lethal dosage: 60 mg
[1]; treatment of parasympathetic and vagus nerve dysfunction on a chronic basis
  side effects on chronic use: dermatographia, hives, itching, and welting

## Cc1ncc(C[n+]2csc(CCO)c2C)c(N)n1 [Thiamin]
[2]; supplementation alone
  autonomic dysfunction or disorders of the effector organs of the parasympathetic nervous system: will not eliminate

## CN[C@H](CC(C)C)C(=O)N[C@H]1C(=O)N[C@@H](CC(N)=O)C(=O)N[C@H]2C(=O)N[C@H]3C(=O)N[C@H](C(=O)N[C@H](C(=O)O)c4cc(O)cc(O)c4-c4cc3ccc4O)[C@H](O)c3ccc(c(Cl)c3)Oc3cc2cc(c3O[C@@H]2O[C@H](CO)[C@@H](O)[C@H](O)[C@H]2O[C@H]2C[C@](C)(N)[C@H](O)[C@H](C)O2)Oc2ccc(cc2Cl)[C@H]1O [Vancomycin]
[3]
  adverse reaction to antibiotic: developed hives and dramatic flushing

## CC(=O)Nc1nnc(S(N)(=O)=O)s1 [acetazolamide]
[4]
  pseudotumor cerebri symptoms: relieved
[5]
  visual snow: did not improve

## C[N+](C)(C)CC(O)CC(=O)[O-] (centres unmarked) [carnitine]
[2]; case studies, patients with organ malfunction secondary to poor vagus nerve function
  organ function when added to the compound: better organ function

## CN1CCCC1c1cccnc1 (centres unmarked) [oral nicotine, nicotine]
[2]; patients tested, ingredient used alone, or nicotine by the stated route (transdermal 1-21 mg)
  stimulation of the effector organs of the vagus nerve / restoration of vagus nerve function: not effective
